Test results as given in patent US5733913A, “6-Aryl pyrido[2,3-d] pyrimidines and naphthyridines for inhibiting protein tyrosine kinase mediated cellular proliferation” (priority 1995, dated 1998).

How the values were obtained:
[1] = biological target: T1, mouse PDGF-β receptor tyrosine kinase (Mus musculus, UniProt P05622); assay: PDGF receptor tyrosine kinase assay; format: biochemical; settings: read-out: Inhibition of Protein Tyrosine Kinases, PDGF, IC50
T1 construct: a fragment of DNA that codes for the intracellular tyrosine kinase domain; made in house; host or cells: Sf9 insect cells (baculovirus), cell lysate
Summary of the method: (§1)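 Intracellular kinase domains expressed in baculovirus-infected SF9 cells; crude lysate used as enzyme. Inhibitor preincubated 10 min at 25 °C with lysate in pH 7.0 Hepes buffer with 10 mM MnCl2 and poly(Glu-Tyr) 4:1, then γ-32P-ATP (50 μM ATP) added for 10 min at 25 °C. TCA-precipitated 32P on filters counted, no-enzyme background subtracted.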

[2] = biological target: T2, human FGF-1 (flg) receptor tyrosine kinase (Homo sapiens, UniProt P11362); assay: FGF receptor tyrosine kinase assay; format: biochemical; settings: read-out: Inhibition of Protein Tyrosine Kinases, FGF, IC50
T2 construct: a fragment of DNA that codes for the intracellular tyrosine kinase domain; made in house; host or cells: Sf9 insect cells (baculovirus), cell lysate
Summary of the method: as §1

C-src kinase = biological target: T3, C-src kinase (Homo sapiens, UniProt P12931); assay: C-src kinase assay; format: biochemical; settings: read-out: Inhibition of Protein Tyrosine Kinases, C-src, IC50
T3 construct: made in house; host or cells: baculovirus-infected insect cells
Summary of the method: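 Baculovirus-expressed c-src immunopurified on antibody-coated latex beads, assayed in 40 mM Tris pH 7.5, 5 mM MgCl2 with poly GluTyr substrate and 5 μM ATP plus 32P-ATP. Reaction 10 min at room temperature, TCA-quenched, filtered; incorporated label counted by scintillation.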

PDGF receptor = PDGF receptor autophosphorylation in RASMC; format: cell-based, rat; settings: PDGF-BB 30 ng/mL, read-out: Inhibition of PDGF Stimulated Receptor Auto Phosphorylation (IC50)
Description: Rat aorta smooth muscle cells (RASMC) were isolated from the thoracic aorta of rats and explanted according to the method of Ross, J. Cell. […] Cells were grown in Dulbecco's modified Eagle's medium (DMEM, Gibco) containing 10% fetal calf serum (FBS, Hyclone, Logan, Utah), 1% glutamine (Gibco) and 1% penicillin/streptomycin (Gibco). Cells were identified as smooth muscle cells by their "hill and valley" growth pattern and by fluorescent staining with a monoclonal antibody specific for SMC μ-actin (Sigma). RASMC were used between passages 5 and 20 for all experiments. Test compounds were prepared in dimethylsulfoxide (DMSO) in order to achieve consistency in the vehicle and to ensure compound solubility. Appropriate DMSO controls were simultaneously evaluated with the test compounds.
PDGF Receptor Autophosphorylation
RASMC were grown to confluency in 100 mm dishes. Growth medium was removed and replaced with serum-free medium and cells were incubated at 37° C. for an additional 24 hours. Test compounds were then added directly to the medium and cells incubated for an additional 2 hours. After 2 hours, PDGF-BB was added at a final concentration of 30 ng/mL for 5 minutes at 37° C. to stimulated autophosphorylation of the PDGF receptor. Following growth factor treatment, the medium was removed, and cells were washed with cold phosphate-buffered saline and immediately lysed with 1 mL of lysis buffer (50 mM HEPES[pH 7.5], 150 mM NaCl, 10% glycerol, 1% Triton X-100, 1 mM EDTA, 1 mMEGTA, 50 mM NaF, 1 mM sodium orthovanadate, 30 mM p-nitrophenyl phosphate, 10 mM sodium pyrophosphate, 1 mM phenylmethyl sulfonyl fluoride, 10 μg/mL aprotinin, and 10 μg/mL leupeptin). Lysates were centrifuged at 10,000×g for 10 minutes. […] Following the incubation, protein-A-sepharose beads were added for 2 hours with continuous mixing, and immune complexes bound to the beads washed 4 times with 1 mL lysis wash buffer. Immune complexes were solubilized in 30 μL of Laemmli sample buffer and electrophoresed in 4-20% SDS polyacrylamide gels. Following electrophoresis, separated proteins were transferred to nitrocellulose and immunoblotted with anti-phosphotyrosine antiserum. […] IC50 values were generated from the densitometric data.

T1 sequence (P05622 599-961 limits assumed): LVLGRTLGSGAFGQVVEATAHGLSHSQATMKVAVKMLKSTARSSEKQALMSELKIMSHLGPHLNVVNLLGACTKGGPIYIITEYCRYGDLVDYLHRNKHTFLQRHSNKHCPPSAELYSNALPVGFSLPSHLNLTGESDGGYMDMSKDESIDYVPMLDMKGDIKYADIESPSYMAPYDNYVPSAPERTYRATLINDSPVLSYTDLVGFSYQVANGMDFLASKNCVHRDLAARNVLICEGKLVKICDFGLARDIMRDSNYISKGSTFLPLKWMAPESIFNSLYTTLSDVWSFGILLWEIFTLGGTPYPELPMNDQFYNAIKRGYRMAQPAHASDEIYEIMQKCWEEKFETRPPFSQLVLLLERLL
T2 sequence (P11362 478-767 limits assumed): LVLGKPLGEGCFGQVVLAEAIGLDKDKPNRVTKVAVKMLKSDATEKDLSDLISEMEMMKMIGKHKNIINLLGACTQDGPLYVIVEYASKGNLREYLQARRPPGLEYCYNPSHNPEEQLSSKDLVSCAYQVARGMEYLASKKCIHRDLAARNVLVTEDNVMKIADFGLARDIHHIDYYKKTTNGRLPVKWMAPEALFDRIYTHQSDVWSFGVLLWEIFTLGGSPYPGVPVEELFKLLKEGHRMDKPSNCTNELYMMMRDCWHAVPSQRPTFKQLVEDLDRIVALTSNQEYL
T3 sequence (P12931 whole entry): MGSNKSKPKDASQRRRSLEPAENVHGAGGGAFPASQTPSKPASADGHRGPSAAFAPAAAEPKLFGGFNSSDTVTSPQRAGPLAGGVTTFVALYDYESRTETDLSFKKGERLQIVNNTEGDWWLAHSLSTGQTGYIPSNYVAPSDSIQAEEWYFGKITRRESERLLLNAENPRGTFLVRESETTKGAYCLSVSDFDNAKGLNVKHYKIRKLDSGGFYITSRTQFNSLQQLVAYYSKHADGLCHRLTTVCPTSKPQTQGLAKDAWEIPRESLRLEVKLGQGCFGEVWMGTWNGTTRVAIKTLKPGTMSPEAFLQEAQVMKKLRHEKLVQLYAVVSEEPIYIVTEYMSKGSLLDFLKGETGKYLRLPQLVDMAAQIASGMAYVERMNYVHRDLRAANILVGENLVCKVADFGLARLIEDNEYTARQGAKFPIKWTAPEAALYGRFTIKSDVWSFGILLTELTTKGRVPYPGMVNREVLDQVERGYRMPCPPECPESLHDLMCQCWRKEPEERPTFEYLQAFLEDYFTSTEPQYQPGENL

SMILES	IC50 [1] [µM]	IC50 [2] [µM]	IC50 (C-src kinase) [µM]	IC50 (PDGF receptor) [µM]
CN(C)CCCN(C)c1ncc2cc(-c3c(Cl)cccc3Cl)c(NC(=O)NC(C)(C)C)nc2n1 [Example 69, 1-tert-Butyl-3-{6-(2,6-dichlorophenyl)-2-[(3-dimethyl-amino-propyl)-methyl-amino]-pyrido[2,3-d]pyrimidin-7-yl}-urea]	15.6	1.96	4.66	6.46
CN1CCN(CCCNc2ncc3cc(-c4c(Cl)cccc4Cl)c(NC(=O)Nc4ccccc4)nc3n2)CC1 [Example 51, 1-{6-(2,6-Dichlorophenyl)-2-[3-(4-methyl-piperazin-1-yl)-propylamino]-pyrido[2,3-d]pyrimidin-7-yl}-3-phenyl-urea]	0.573	0.084	0.1	0.365
CC(C)(C)NC(=O)Nc1nc2nc(NCCCN3CCOCC3)ncc2cc1-c1c(Cl)cccc1Cl [Example 59, 1-tert-Butyl-3-[6-(2,6-dichlorophenyl)-2-(3-morpholin-4-yl-propylamino)-pyrido[2,3-d]pyrimidin-7-yl]-urea]	0.838	0.072	0.085	1.19
CCN(CC)CCCNc1ncc2cc(-c3c(C)cccc3C)c(NC(=O)NC(C)(C)C)nc2n1 [Example 116, 1-tert-Butyl-3-[2-(3-diethylamino-propylamino)-6-(2,6-dimethyl-phenyl)-pyrido[2,3-d]pyrimidin-7-yl]-urea]	0.804	0.335	0.098	0.91
CC(C)NC(=O)Nc1nc2nc(N)ncc2cc1-c1c(Cl)cccc1Cl [Example 89, 1-[2-Amino-6-(2,6-dichlorophenyl)-pyrido[2,3-d]pyrimidin-7-yl]-3-isopropyl-urea]	0.857	0.111	0.036	1.63

Other lines, results leading:

IC50 [1] [µM]	IC50 [2] [µM]	IC50 (C-src kinase) [µM]	IC50 (PDGF receptor) [µM]	SMILES
0.676	0.075	0.117	1.38	CN(C)CCCNc1ncc2cc(-c3c(Cl)cccc3Cl)c(NC(=O)NC(C)(C)C)nc2n1 [Example 28, 1-tert-Butyl-3-[6-(2,6-dichlorophenyl)-2-(3-dimethylamino-propylamino)-pyrido[2,3-d]pyrimidin-7-yl]-urea]
1.09	0.077	0.078	1.1	CCN(CC)CCCNc1ncc2cc(-c3c(Cl)cccc3Cl)c(NC(=O)NC(C)C)nc2n1 [Example 113, 1-[6-(2,6-Dichlorophenyl)-2-(3-diethylamino-propyl-amino)-pyrido[2,3-d]pyrimidin-7-yl]-3-isopropyl-urea]
1.26	0.128	0.077	1.08	CCNC(=O)Nc1nc2nc(NCCCN(CC)CC)ncc2cc1-c1c(Cl)cccc1Cl [Example 112, 1-[6-(2,6-Dichlorophenyl)-2-(3-diethylamino-propyl-amino)-pyrido[2,3-d]pyrimidin-7-yl]-3-ethyl-urea]
2.63	1.24	0.024	5.13	CCNC(=O)Nc1nc2nc(NCCCN(CC)CC)ncc2cc1-c1c(C)cccc1C [Example 115]
5.19	1.28	3.42	5.29	CCN(CC)CCNc1ncc2cc(-c3c(Cl)cccc3Cl)c(NC(=O)NC(C)(C)C)nc2n1 [Example 66, 1-tert-Butyl-3-[6-(2,6-dichlorophenyl)-2-(2-diethyl-amino-ethylamino)-pyrido[2,3-d]pyrimidin-7-yl]-urea]
